Reference: patent publication US8173131B2, “Compositions and methods for modulating RSV infection and immunity” (PerkinElmer Health Sciences, Inc., priority 2000, dated 2012)

T1: CX3CR1 (293-CX3CR1 cells) (Homo sapiens, UniProt P49238)
T1 construct: expressed in transfected cells
T1 sequence (P49238 1-355): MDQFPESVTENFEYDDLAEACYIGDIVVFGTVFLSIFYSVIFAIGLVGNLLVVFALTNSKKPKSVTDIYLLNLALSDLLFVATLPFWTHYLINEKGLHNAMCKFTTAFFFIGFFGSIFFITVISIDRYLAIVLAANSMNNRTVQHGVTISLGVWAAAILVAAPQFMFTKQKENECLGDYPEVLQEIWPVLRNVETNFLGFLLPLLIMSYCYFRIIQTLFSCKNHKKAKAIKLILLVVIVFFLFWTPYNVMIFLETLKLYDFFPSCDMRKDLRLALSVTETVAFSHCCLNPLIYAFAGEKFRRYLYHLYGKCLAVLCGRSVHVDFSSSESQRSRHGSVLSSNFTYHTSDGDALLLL


Experiments:
293 cells = experiment: G glycoprotein and Fkn binding to untransfected 293 control cells by flow cytometry; set-up: species or system human; conditions: for binding to 293 cells: wheat germ lectin column fraction (G, F glycoprotein) or purified recombinant polyhistidine-tagged G glycoprotein
Procedure: (§1) Purified G glycoprotein was examined for binding to 293-CX3CR1 cells^33. A pcDNA 3.1 plasmid containing the CX3CR1 gene and a neomycin resistance gene was used to stably transfect human embryonic kidney (HEK) cells. Neomycin resistance was used for selection and maintenance of plasmid transfection of human embryonic kidney cells.
(§2) All binding studies were done on ice and either G glycoprotein or human Fkn (R&D Diagnostics, Minneapolis, Minn.) were diluted between 1 nM-100 nM in PBS (GIBCO) containing 1% bovine serum albumin (Sigma) and incubated with the 293-CX3CR1 cells or 293 control cells for 30 min at 4° C. […] For inhibition studies, 100 pM-1 μM human Fkn or G glycoprotein was preincubated with the cells for 30 min at 4° C. Without washing, 100 pM of either Fkn or G glycoprotein was added and incubated for 30 min at 4° C. The cells were washed, blocked with FcγRIII blocking antibody (HB197) for 30 min on ice, washed and stained as appropriate with either an anti-G glycoprotein monoclonal antibody cocktail (132-5B, 132-5G, 130-2G, 232-IF) or a biotinylated anti-G glycoprotein monoclonal antibody cocktail (130-2G, 131-2G) or anti-Fkn monoclonal antibody (51637.11; R&D Diagnostics). Concentrations of 1 μg of anti-G glycoprotein monoclonal antibody (131-2G)^34, rabbit anti-CX3CR1 sera^33, and anti-CX3CR1 monoclonal antibody containing 10 μg/ml heparin were used in all experiments. […] Staining was detected with absorbed FITC-goat anti-mouse (H & L chain) monoclonal antibody (PharMingen, San Diego, Calif.) or streptavidin-PE (PharMingen) using flow cytometry (FACScan, Becton-Dickinson, Mountain View, Calif.). A 76 amino acid ^125I-Fkn polypeptide comprising the […] (NEN, Boston, Mass.) was used in radioligand studies^33. As a control, the void volume following purified G glycoprotein passaged over an anti-G glycoprotein antibody (130-2G) affinity column was examined by flow cytometry for binding to either 293 or 293-CX3CR1 cells.
(§3) The receptor for Fkn, CX3CR1, was previously identified and characterized using anti-CX3CR1 rabbit antiserum and CX3CR1-transfected human embryonic kidney cells (293-CX3CR1 cells)^33.

[1] = target: T1, CX3CR1 (293-CX3CR1 cells); experiment: G glycoprotein and Fkn binding to 293-CX3CR1 cells by flow cytometry; conditions: for binding to 293-CX3CR1 cells: wheat germ lectin column fraction (G, F glycoprotein) or purified recombinant polyhistidine-tagged G glycoprotein
Procedure: as §1
as §2, with “[…])” for “Minn.) were diluted between 1 nM-100 nM in PBS (GIBCO)”
as §3
The percent Fkn-maximum binding was calculated using the equation: [% G (or Fkn) 293-CX3CR1]-[% G (or Fkn) 293]/[% Fkn (10 nM) 293-CX3CR1]-[% Fkn (10 nM) 293], where G=G glycoprotein, Fkn=fractalkine, 293-CX3CR1=CX3CR1-transfected 293, 293=untransfected 293. The concentration of G glycoprotein was estimated using a molecular weight of 90 kD.

[2] = tested on: G glycoprotein binding to 293-CX3CR1 cells; set-up: species or system human; conditions: heparin 5 μg/ml alone
Procedure: All binding studies were done on ice and either G glycoprotein or human Fkn (R&D Diagnostics, Minneapolis, Minn.) were diluted between 1 nM-100 nM in PBS (GIBCO) containing 1% bovine serum albumin (Sigma) and incubated with the 293-CX3CR1 cells or 293 control cells for 30 min at 4° C. […] Without washing, 100 pM of either Fkn or G glycoprotein was added and incubated for 30 min at 4° C. The cells were washed, blocked with FcγRIII blocking antibody (HB197) for 30 min on ice, washed and stained as appropriate with either an anti-G glycoprotein monoclonal antibody cocktail (132-5B, 132-5G, 130-2G, 232-IF) or a biotinylated anti-G glycoprotein monoclonal antibody cocktail (130-2G, 131-2G) or anti-Fkn monoclonal antibody (51637.11; R&D Diagnostics). Concentrations of 1 μg of anti-G glycoprotein monoclonal antibody (131-2G)^34, rabbit anti-CX3CR1 sera^33, and anti-CX3CR1 monoclonal antibody containing 10 μg/ml heparin were used in all experiments. […] Staining was detected with absorbed FITC-goat anti-mouse (H & L chain) monoclonal antibody (PharMingen, San Diego, Calif.) or streptavidin-PE (PharMingen) using flow cytometry (FACScan, Becton-Dickinson, Mountain View, Calif.). A 76 amino acid ^125I-Fkn polypeptide comprising the […] (NEN, Boston, Mass.) was used in radioligand studies^33. As a control, the void volume following purified G glycoprotein passaged over an anti-G glycoprotein antibody (130-2G) affinity column was examined by flow cytometry for binding to either 293 or 293-CX3CR1 cells.
For peptide inhibition studies, a series of G glycoprotein peptides were identified in the amino acid sequence of the A2 strain of RSV (GENBANK, attachment protein locus 1912305, Table 4). The peptides were synthesized using a simultaneous, multiple solid-phase peptide synthesis method on a peptide synthesizer (Perkin-Elmer Applied Biosystems, Berkeley, Calif.), and tested for homogeneity by reverse-phase liquid chromatography and capillary electrophoresis (www.biotech.cdc.gov/protein/methods). Inhibition assays were performed as described for the binding studies above.
To determine if G glycoprotein bound 293-CX3CR1 cells via CX3CR1, the ability of four reagents (anti-CX3CR1 rabbit antiserum, anti-CX3CR1 monoclonal antibody (2A9-1), Fkn and a 76 amino acid 125-I-Fkn polypeptide containing the CX3C domain) that bind to CX3CR1 to block G glycoprotein binding to 293-CX3CR1 cells was examined. In addition, to determine if binding of G glycoprotein to 293-CX3CR1 cells was dependent upon the CX3C motif, G glycoprotein peptides with a single residue insertion (Δ+1) or deletion (Δ−1) in the CX3C motif and also peptides that lacked or included the CX3C motif (Table 4) were generated. This panel of peptides was analyzed for their ability to block G glycoprotein or Fkn binding to 293-CX3CR1 cells.
Inhibition of Fkn and G glycoprotein binding to 293-CX3CR1 cells by treatment with monoclonal antibodies to G glycoprotein or CX3CR1, or treatment with G glycoprotein, Fkn, or G glycoprotein peptides in the presence or absence of heparin as described in Methods. […] The concentration of G glycoprotein was estimated using a molecular weight of 90 kD.

RSV [3] = experiment: RSV plaque reduction assay on Vero cells (Example 1); assay type: cell-based, RSV/A2; conditions: 5 μg/ml
Procedure: Dilutions of Fkn (R&D systems), SDF-1 α (R&D systems), G glycoprotein, heparin (Sigma), G glycoprotein peptides and anti-CX3CR1 antibody were made in serum-free Dulbecco's Modified Eagle's Media (DMEM; GIBCO) containing 1% BSA (Sigma) and preincubated with the Vero cells for 1 h at 37° C. 50 μg of anti-CX3CR1 antibody or heat-inactivated (56° C., 30 min) normal rabbit sera (control) were used in all experiments. […] Dilutions of RSV were made in serum-free DMEM (GIBCO) and added to pretreated Vero cells for 2 h at 37° C. Following virus infection, DMEM (GIBCO) containing 10% FBS (Hyclone, Logan, Utah) was added to the wells. Plaques were enumerated using immunostaining for F and G glycoproteins using biotinylated monoclonal antibodies 131-2A (anti-F glycoprotein) and 130-2G (anti-G glycoprotein) as described^45.
RSV plaque reduction following treatment with G glycoprotein, Fkn, G glycoprotein peptides, anti-CX3CR1 antibody, SDF-1-α and/or heparin as described in Methods. Percent inhibition was determined from the mean plaque forming units (pfu) of treated Vero cells over saline-treated Vero cells using a dilution of RSV that would produce 40-80 pfu. p-values were determined using unpaired two-tailed analysis where p<0.05 is significant. The concentration of G glycoprotein was estimated using a molecular weight of 90 kD.

RSV [4] = experiment: RSV plaque reduction by small molecule peptide inhibitors on Vero cells (Example II); assay type: cell-based, RSV/A2; conditions: heparin alone, 5 μg/ml
Procedure: Vero cells were treated with PBS, RT33, RT34, Δ+1, Δ−1 and EYp1 peptides (100 μm) in the presence (B) or absence of heparin (A) (5 μg/ml). Percentage inhibition was determined by dividing the mean plaque forming units (PFU) of treated Vero cells by the mean PFU of PBS-treated Vero cells.
Different concentrations of the G glycoprotein peptides and/or 5 μg/ml heparin (Sigma) were diluted in Dulbecco's phosphate buffered saline (D-PBS; GIBCO) and added to Vero cell monolayers for 1 h at 37° C. Pre-treated Vero cells were infected with 10^6 PFU of RSV/A2 diluted in serum-free DMEM (GIBCO) for 2 h at 37° C., after which DMEM (GIBCO) containing 10% FBS (Hyclone, Logan, Utah) was added, and the infected cells incubated at 37° C. for 3-4 days. Plaques were enumerated by immunostaining with monoclonal antibodies against the G and F glycoproteins (130-2G and 131-2A, respectively), as described (54,55).

[5] = target: T2, Fkn binding to 293-CX3CR1 cells (Homo sapiens, UniProt P49238); conditions: heparin 5 μg/ml alone
T2 construct: host or cells: HEK 293 cells stably transfected with CX3CR1

[6] = 10 nM ligand, representative experiment, FIG. 1

Molecule | binding to 293 cells (293 cells) | binding to 293-CX3CR1 cells [1] | Range of Inhibition (%) of G glycoprotein binding [2] | plaque inhibition (%) (RSV [3]) | inhibition of plaque formation (RSV [4]) | Range of Inhibition (%) of Fkn binding [5] | percent positive staining of 293 cells (293 cells; [6]) | percent positive staining of CX3CR1-293 cells [1, 6]
F glycoprotein: RSV F (fusion) glycoprotein in wheat germ lectin column fraction | 8% | 12% |  |  |  |  |  | 
Heparin [reference compound] |  |  | 78-84% | 66% | 80% | 57-65% |  | 
GHIS: purified recombinant soluble polyhistidine-tagged G glycoprotein from transfected Vero cells (protein, left off: small tags and cut ends, purified recombinant soluble polyhistidine-tagged G glycoprotein from transfected Vero cells) NHKVTPTTAIIQDATSQIKNTTPTYLTQNPQLGISPSNPSEITSQITTILASTTPGVKSTLQSTTVKTKNTTTTQTQPSKPTTKQRQNKPPSKPNNDFHFEVFNFVPCSICSNNPTCWAICKRIPNKKPGKKTTTKPTKKPTLKTTKKDPKPQTTKSKEVPTTKPTEEPTINTTKTNIITTLLTSNTTGNPELTSQMETFHSTSSEGNPSPSQVSTTSEYPSQPSSPPNTPRQ | 7-12% | 68-88% |  |  |  |  | 12% | 68%
